This is an account of results in PMC3976273, “Three Amino Acid Residues Bind Corn Odorants to McinOBP1 in the Polyembryonic Endoparasitoid of Macrocentrus cingulum Brischke” (PLoS ONE, 2014).

Experiment [1] concerns the target T1, McinOBP1-wt (Macrocentrus cingulum, UniProt X2D9T4). Put plainly: Fluorescence binding of the probe 1-NPN (direct titration). Conditions: dissociation constant (KD) of 1-NPN, 2 μM protein, 50 mM Tris-HCl pH 7.4. On the procedure:
(§1) Fluorescence binding assays were recorded on Shimadzu fluorescence spectrophotometer (Shimadzu, Japan) with a 1 cm light path quartz cuvette; both excitation and emission silts widths were 5 nm. The probe was excited at 337 nm and emission spectra were recorded between 350 and 500 nm. […] For determining the bound ligand from the intensity values of fluorescence emission assuming that the proteins were 100% active, with a stoichiometry of 1∶1 (protein:ligand) at saturation. The GraphPad Prism 5 (GraphPad Software, Inc.) was used to estimate the K1–NPN (KD of protein complex/1-NPN) values by nonlinear regression for a unique site of binding. Scatchard plots were used to linearize the curves.

Experiment [2] concerns the target T2, McinOBP1-m3 (Glu130 to alanine) (Macrocentrus cingulum, UniProt X2D9T4, E130A).
T2 sequence (X2D9T4 21-140 E130A): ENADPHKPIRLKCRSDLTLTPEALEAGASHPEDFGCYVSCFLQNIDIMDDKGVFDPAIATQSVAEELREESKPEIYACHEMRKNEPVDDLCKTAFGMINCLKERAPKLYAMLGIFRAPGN
The experiment is described as above. Conditions: 2 μM protein, pH 7.4.
Text: (§2) The three mutants of McinOBP1, m1 (mutation of amino acid, valine to alanine at 58 position), m2 (mutation of amino acid, leucine to proline at 62 position) and m3 (mutation of amino acid, glutamic to alanine at 130 position), were developed using the kit of Quick-change lightning site-directed mutagenesis (Stratagene, La Jolla, CA, USA). The McinOBP1-wt/pGEM-T Easy construct was used as a template. The primers were designed manually and mutation sites are underlined as listed below.
as §1

Experiment [3] concerns the target T3, McinOBP1-m2 (Leu62 to proline) (Macrocentrus cingulum, UniProt X2D9T4, L62P).
T3 sequence (X2D9T4 21-140 L62P): T2 sequence (X2D9T4 21-140 E130A) with L42P, A110E
Described as above. Conditions: 2 μM protein, pH 7.4.
Text: as §2, §1

Experiment [4] deals with T4, McinOBP1-m1 (Val58 to alanine) (Macrocentrus cingulum, UniProt X2D9T4, V58A).
T4 sequence (X2D9T4 21-140 V58A): T2 sequence (X2D9T4 21-140 E130A) with V38A, A110E
Described as above. The conditions noted are these: 2 μM protein, pH 7.4.
Text: as §2, §1

The target of experiment [5] is T1, McinOBP1-wt. Put plainly: Competitive fluorescence binding assay, displacement of 1-NPN. The conditions noted are these: for binding to McinOBP1-wt (in words): displacement of 1-NPN. On the procedure:
as §1

Experiment [6] deals with T2, McinOBP1-m3 (Glu130 to alanine). Described as above.
Text: as §2, §1

Experiment [7] addresses T3, McinOBP1-m2 (Leu62 to proline). Described as above.
Text: as §2, §1

For experiment [8], the target named is T4, McinOBP1-m1 (Val58 to alanine). The experiment is described as above.
Text: as §2, §1

[9] abbreviates: McinOBP1-wt, pH 7.4, 2 μM 1-NPN, read-out: IC50 (given as dash).
Where [10] appears, read: McinOBP1-wt, pH 7.4, 2 μM 1-NPN.
The mark [11] stands for this setting: McinOBP1-wt, pH 7.4, calculated from IC50 and K1-NPN, read-out: KD (calculated dissociation constant).
Where [12] appears, read: read-out: IC50 (ligand concentration displacing 50% of the fluorescence of the McinOBP1/1-NPN complex), McinOBP1-wt, pH 7.4, 2 μM 1-NPN.

Residue numbers refer to the chain shown, from its start. Several values for one entry are separate records, joined by “and”; a condition that tells them apart may be missing. Equal entries are not always repeated. Entries after “also recorded” stand apart in the source; their conditions may differ. Where two headings read alike, the source gives them in different places.

T1 sequence (X2D9T4 entry or part of it): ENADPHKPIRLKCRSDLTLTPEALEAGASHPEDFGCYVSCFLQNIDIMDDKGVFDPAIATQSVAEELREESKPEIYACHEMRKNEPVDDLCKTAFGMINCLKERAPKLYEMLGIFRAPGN

The term Kd denotes the equilibrium constant for the complex coming apart. In the case of `c1ccc(Nc2cccc3ccccc23)cc1` [1-NPN, N-phenyl-1-naphthylamine], the Kd was ~6.6 µM and 6.6 µM on McinOBP1-wt [1]; 6.53 ± 0.5 µM in experiment [2]; 13.7 ± 0.71 µM in experiment [3]; 14.6 ± 1.07 µM in experiment [4].

Consider `CCC(C)CCCC(C)C` (centres unmarked) [2,6 dimethyl octane], for which the “binding to McinOBP1-wt (in words)” value at McinOBP1-wt [5] (McinOBP1-wt) is “no binding affinity”; at McinOBP1-wt [5] (McinOBP1-wt, listed as 2, 6 dimethyl octane) it was “did not bind”. In addition, the IC50 at McinOBP1-wt [5] (setting [9]) is above 50 µM.

In the case of `CCCCCc1ccco1` [2-Pentylfuran], the IC50 on McinOBP1-wt [5] (setting [10]) amounted to 19.1 µM. Besides, at McinOBP1-wt [5] (setting [11]), the Kd was 16.6 µM.

For `O=Cc1ccccc1` [Benzaldehyde], on McinOBP1-wt [5], the IC50 is 17.9 µM and the Kd is 15.6 µM.

On to `CC/C=C\CCO` [Cis-3-Hexen-1-ol], for which the IC50 at McinOBP1-wt [5] was determined as 4.61 µM; in experiment [6], 29.5 µM; in experiment [7], 26.1 µM; in experiment [8], 23.6 µM. For the same compound, the equilibrium dissociation constant (Kd) at McinOBP1-wt [5] was found to be 4 µM; in experiment [6] (KD, McinOBP1-m3), 25.6 µM; in experiment [7], 24.3 µM; in experiment [8] it was 22.1 µM.

As for `CCCCCCCCCC=O` [Decanal], the “binding to McinOBP1-wt (in words)” value was “did not bind” at McinOBP1-wt [5] (McinOBP1-wt) and “no binding affinity” at McinOBP1-wt [5] (McinOBP1-wt, listed as decanal). Further, the IC50 on McinOBP1-wt [5] (setting [9]) was above 50 µM.

The compound `CCCCCCC=O` [Heptanal] registered an IC50 at McinOBP1-wt [5] (setting [10]) of 35.5 µM. On McinOBP1-wt [5] (setting [11]), the Kd is 30.9 µM.

Consider `C=C(C)[C@H]1CC=C(C)CC1` [Limonene], for which the Kd at McinOBP1-wt [5] (setting [11]) is 18.3 µM. Further, on McinOBP1-wt [5] (setting [12]), the IC50 came to 21.1 µM.

With `C=CC(C)(O)CCC=C(C)C` (centres unmarked) [Linalool], on McinOBP1-wt [5], the IC50 is 18.6 µM and binding was characterised by a dissociation constant (Kd) of 16.2 µM.

Take `CCCCCCCCC=O` [Nonanal]: at McinOBP1-wt [5] (setting [10]), the IC50 was 19.6 µM. Moreover, the Kd on McinOBP1-wt [5] (setting [11]) was 17 µM.

Regarding `CCCCCC/C=C/C=O` [Trans-2-Nonenal], the IC50 at McinOBP1-wt [5] stood at 3.4 µM; in experiment [6], 76.7 µM; in experiment [7], 50.6 µM; in experiment [8] it was 13.6 µM. For the same compound, the Kd came out at 2.96 µM at McinOBP1-wt [5]; 66.5 µM in experiment [6] (KD, McinOBP1-m3); 47.2 µM in experiment [7]; 12.7 µM in experiment [8].

On McinOBP1-wt [5] (setting [10]), `CCCCC/C=C/C=O` [Trans-2-Octenal] registered an IC50 of 15.7 µM. Besides, the dissociation constant (Kd) on McinOBP1-wt [5] (setting [11]) is 13.6 µM.

With `CC/C=C/CCOC(C)=O` [Trans-3-Hexen-1-ol-Acetate], at McinOBP1-wt [5] (setting [11]), the dissociation constant (Kd) is 20.7 µM. Also, on McinOBP1-wt [5] (setting [12]), the IC50 turned out to be 23.9 µM.

Consider `C=C1CC/C=C(\C)CC[C@@H]2[C@@H]1CC2(C)C` [Trans-Caryophelle, β- Caryophelle], for which the Kd on McinOBP1-wt [5] (setting [11]) was 6.53 µM; in experiment [6] (McinOBP1-m3, listed as trans-caryophelle, read-out: KD) it was 41.4 ± 5.38 µM; in experiment [6] (McinOBP1-m3, read-out: KD), 41.4 µM; in experiment [7] (McinOBP1-m2, read-out: KD) it was 42 µM; in experiment [8] (McinOBP1-m1, read-out: KD) it was 66.2 µM. Moreover, the IC50 on McinOBP1-wt [5] (setting [12]) was 7.51 µM; in experiment [6] (McinOBP1-m3, read-out: IC50) it was 47.8 µM; in experiment [7] (McinOBP1-m2, read-out: IC50), 45 µM; in experiment [8] (McinOBP1-m1, read-out: IC50) it was 70.7 µM.

Regarding `CCCCCCCCCCC=O` [Undecanal], the “binding to McinOBP1-wt (in words)” value at McinOBP1-wt [5] (McinOBP1-wt) was “did not bind; also recorded: no binding affinity”. Further, the IC50 at McinOBP1-wt [5] (setting [9]) is above 50 µM.

Turning to `CC/C=C\CCOC(C)=O` [cis-3-hexenyl acetate], the Kd at McinOBP1-wt [5] (setting [11]) is 10.3 ± 0.71 µM.

On McinOBP1-wt [5], `CC(=O)/C=C/C1C(C)=CCCC1(C)C` (stereo not drawn) [α-Ionone] had an IC50 of 12.1 µM and a Kd of 9.3 ± 0.38 µM.

On McinOBP1-wt [5], `CC1=CCC2CC1C2(C)C` (stereo not drawn) [α-pinene] had an IC50 of 17.8 µM and a Kd of 15.5 µM.

For `C=CC(=C)CC/C=C(\C)CCC=C(C)C` [β-Farnesene], at McinOBP1-wt [5] (setting [11]), the dissociation constant (Kd) was 24.8 µM. In addition, the IC50 on McinOBP1-wt [5] (setting [12]) was found to be 28.5 µM.

Consider `CC(=O)/C=C/C1=C(C)CCCC1(C)C` [β-Ionone], for which, on McinOBP1-wt [5], the IC50 amounted to 10.3 µM and binding was characterised by a dissociation constant (Kd) of 8.97 µM.

On McinOBP1-wt [5], `C=C1CCC2CC1C2(C)C` (stereo not drawn) [β-Pinene] yielded an IC50 of 12.7 µM and a Kd of 10.8 µM.

For Farnsene, the Kd at McinOBP1-wt [5] (setting [11]) was 8.93 µM. Besides, at McinOBP1-wt [5] (setting [12]), the IC50 stood at 10.3 µM.

Take Hexenal: the Kd on McinOBP1-wt [5] (setting [11]) is 16.4 µM. Also, the IC50 on McinOBP1-wt [5] (setting [12]) stood at 18.9 µM.
